Source: patent US20180042234A1, “FUNGICIDAL PYRAZOLES” (E I DU PONT DE NEMOURS AND COMPANY, priority 2015, published 2018)
Marks after values point to notes of the source that are not given here.

Legend:
Type in all cases: in vivo
Septoria tritici = test: Test B: wheat leaf blotch, preventive spray on wheat seedlings, visual disease rating
Text: (§1) General protocol for preparing test suspensions for Tests A-E: the test compounds were first dissolved in acetone in an amount equal to 3% of the final volume and then suspended at the desired concentration (in ppm) in acetone and purified water (50/50 mix by volume) containing 250 ppm of the surfactant Trem® 014 (polyhydric alcohol esters). The resulting test suspensions were then used in Tests A-E. Spraying a 200 ppm test suspension to the point of run-off on the test plants was the equivalent of a rate of 800 g/ha.
(§2) The test suspension was sprayed to the point of run-off on wheat seedlings. The following day the seedlings were inoculated with a spore suspension of Septoria tritici (the causal agent of wheat leaf blotch) and incubated in a saturated atmosphere at 24° C. for 48 h, and then moved to a growth chamber at 20° C. for 19 days, after which time visual disease ratings were made.
(§3) Results for Tests A-E are given in Table A. In the Table, a rating of 100 indicates 100% disease control and a rating of 0 indicates no disease control (relative to the controls). A dash (-) indicates no test results. All results are for 200 ppm except where followed by an asterisk “*” which indicates a 250 ppm test suspension was used or a double asterisk “**” which indicates a 50 ppm test suspension was used.

[1] = system: Puccinia recondita f. sp. tritici; test: Test A: wheat leaf rust, preventive spray on wheat seedlings, visual disease rating
Text: as §1
as §2, with “Puccinia recondita f. sp.” for “Septoria”, “rust)” for “blotch)”, “20°” for “24°”, “24” for “48”, “7” for “19”
as §3

[2] = system: Blumeria graminis f sp. tritici; test: Test D: wheat powdery mildew, preventive spray on wheat seedlings, visual disease rating
Text: as §1
The test suspension was sprayed to the point of run-off on wheat seedlings. The following day the seedlings were inoculated with a spore dust of Blumeria graminis f sp. tritici, (also known as Erysiphe graminis f sp. tritici, the causal agent of wheat powdery mildew) and incubated in a growth chamber at 20° C. for 8 days, after which time visual disease ratings were made.
as §3

Botrytis cinerea = test: Test C: tomato Botrytis, preventive spray on tomato seedlings, visual disease rating
Text: as §1
as §2, with “tomato” for “wheat”, “Botrytis cinerea” for “Septoria tritici”, “tomato Botrytis)” for “wheat leaf blotch)”, “20°” for “24°”, “24°” for “20°”, “3” for “19”
as §3

[3] = 200 ppm test suspension, 100 = 100% disease control, 0 = no control

| Compound | Test B disease control rating (Septoria tritici; 250 ppm test suspension (*)) | Test A disease control rating ([1]; 250 ppm test suspension (*)) | Test D disease control rating ([2]; 250 ppm test suspension (*)) | Test C disease control rating (Botrytis cinerea; 250 ppm test suspension (*)) | further results |
| --- | --- | --- | --- | --- | --- |
| CCCCC(CC)c1c(C)nn(C)c1Nc1ccc(F)cc1Cl (centres unmarked) [Compound 3] |  |  |  |  | Test B disease control rating (Septoria tritici; 200 ppm test suspension): 0%; Test A disease control rating [1, 3]: 9%; Test D disease control rating ([2]; 200 ppm test suspension): 0% |
| Cn1nc(Br)c(C2OCCCO2)c1C(O)c1ccc(F)cc1Cl (centres unmarked) [Compound 8] | 5* % | 0* % | 72* % | 0* % |  |
| Cn1nc(Br)c(C2OCCCO2)c1C(O)c1ccc(F)cc1Br (centres unmarked) [Compound 9] | 0* % | 0* % | 64* % | 0* % |  |
| Cn1nc(Br)c(C2OCCCO2)c1C(O)c1ccc(F)cc1F (centres unmarked) [Compound 10] | 0* % | 0* % | 90* % | 0* % |  |
| Cc1nn(C)c(C(O)c2ccc(F)cc2F)c1C1CCCCC1 (stereo not drawn) [Compound 12, 4-cyclohexyl-α-(2,4-difluorophenyl)-1,3-dimethyl-1H-pyrazole-5-methanol] | 100* % | 94* % | 97* % | 61* % |  |
| Cc1nn(C)c(Nc2ccc(F)cc2F)c1C1=CCC(C#N)CC1 (centres unmarked) [Compound 18] | 79* % | 19* % | 0* % | 73* % |  |
| Cc1nn(C)c(Nc2ccc(F)cc2F)c1C1CCC(C)(C)CC1 [Compound 19] | 1* % | 0* % | 96* % | 0* % |  |
| Cc1nn(C)c(Nc2ccc(F)cc2Cl)c1C1=CCOCC1 [Compound 21] | 17* % | 0* % | 13* % | 42* % |  |
| Cc1nn(C)c(Nc2c(F)cc(Cl)cc2F)c1C1=CCCCC1C (centres unmarked) [Compound 22] |  |  |  |  | Test A disease control rating [1, 3]: 68%; Test D disease control rating ([2]; 200 ppm test suspension): 56%; Test C disease control rating (Botrytis cinerea; 200 ppm test suspension): 99% |
| CCC(C)c1c(C)nn(C)c1Nc1c(F)cc(Cl)cc1F (centres unmarked) [Compound 23, N-(4-chloro-2,6-difluorophenyl)-1,3-dimethyl-4-(1-methylpropyl)-1H-pyrazol-5-amine] |  |  |  |  | Test A disease control rating [1, 3]: 68%; Test D disease control rating ([2]; 200 ppm test suspension): 95%; Test C disease control rating (Botrytis cinerea; 200 ppm test suspension): 98% |
| CC=C(C)c1c(C)nn(C)c1Nc1c(F)cc(Cl)cc1F [Compound 24, N-(4-chloro-2,6-difluorophenyl)-1,3-dimethyl-4-(1-methyl-1-propen-1-yl)-1H-pyrazol-5-amine] |  |  |  |  | Test B disease control rating (Septoria tritici; 200 ppm test suspension): 96%; Test A disease control rating [1, 3]: 94%; Test D disease control rating ([2]; 200 ppm test suspension): 100%; Test C disease control rating (Botrytis cinerea; 200 ppm test suspension): 85% |
| CCC(OC)c1c(C)nn(C)c1Oc1c(F)cccc1F (centres unmarked) [Compound 25] | 6* % | 99* % | 0* % | 0* % |  |
| CCON=C(C)c1c(C)nn(C)c1Nc1ccc(F)cc1Cl [Compound 26] | 33* % | 0* % | 0* % | 0* % |  |
| CCCON=C(C)c1c(C)nn(C)c1Nc1ccc(F)cc1Cl [Compound 27] | 17* % | 9* % | 69* % | 0* % |  |
| CC(=NOC(C)C)c1c(C)nn(C)c1Nc1ccc(F)cc1Cl [Compound 28] | 24* % | 32* % | 0* % | 0* % |  |
| CCON=C(C)c1c(C)nn(C)c1N(CC)c1ccc(F)cc1Cl [Compound 29] | 14* % | 55* % | 0* % | 0* % |  |
| CON=C(C)c1c(C)nn(C)c1Nc1ccc(F)cc1Cl [Compound 30] | 14* % | 80* % | 0* % | 0* % |  |
| CC(=CC(C)C)c1c(C)nn(C)c1Nc1ccc(F)cc1Cl [Compound 31] | 6* % | 55* % | 48* % | 0* % |  |

| Compound | Test B disease control rating (Septoria tritici; 250 ppm test suspension (*)) | Test A disease control rating ([1]; 250 ppm test suspension (*)) | Test D disease control rating ([2]; 250 ppm test suspension (*)) | Test C disease control rating (Botrytis cinerea; 250 ppm test suspension (*)) | further results |
| --- | --- | --- | --- | --- | --- |
| CC(=O)c1c(C)nn(C)c1Nc1ccc(F)cc1Cl [Compound 32] |  | 19* % | 0* % | 56* % |  |
| CON=C(C)c1c(C)nn(C)c1N(C)c1ccc(F)cc1Cl [Compound 33] |  |  |  |  | Test B disease control rating (Septoria tritici; 50 ppm test suspension (**)): 0** %; Test A disease control rating ([1]; 50 ppm test suspension (**)): 17** %; Test D disease control rating ([2]; 50 ppm test suspension (**)): 0** %; Test C disease control rating (Botrytis cinerea; 50 ppm test suspension (**)): 7** % |
| C=Cc1c(C)nn(C)c1Oc1ccc(F)cc1Cl [Compound 35] | 0* % | 8* % | 26* % | 0* % |  |
| Cc1nn(C)c(Oc2ccc(F)cc2Cl)c1C1OCCCO1 [Compound 37] | 5* % | 52* % | 63* % | 0* % |  |
| Cc1nn(C)c(Oc2ccc(F)cc2Cl)c1C1OCC(C)(C)CO1 [Compound 38] | 93* % | 52* % | 94* % | 0* % |  |
| C=C(C)c1c(C)nn(C)c1Oc1ccc(F)cc1Cl [Compound 39] | 0* % | 15* % | 13* % | 0* % |  |
| CC1=NOC(c2c(C)nn(C)c2Oc2ccc(F)cc2Cl)C1 (centres unmarked) [Compound 40] | 36* % | 30* % | 81* % | 33* % |  |
| Cc1nn(C)c(Oc2ccc(F)cc2Cl)c1C(C)O (centres unmarked) [Compound 41] | 0* % | 0* % | 46* % | 0* % |  |
| Cc1nn(C)c(Oc2ccc(F)cc2Cl)c1C=NO [Compound 42] | 0* % | 9* % | 81* % | 7* % |  |
| Cc1nn(C)c(Oc2ccc(F)cc2Cl)c1C1=NOC(C)(C)C1 [Compound 53] | 2* % | 0* % | 90* % | 0* % |  |
| Cc1nn(C)c(Oc2ccc(F)cc2Cl)c1C1=NOC(C#N)C1 (centres unmarked) [Compound 55] | 0* % | 0* % | 73* % | 0* % |  |
| Cc1nn(C)c(Nc2ccc(F)cc2Cl)c1C1CCOCC1 [Compound 56] | 100* % | 55* % | 99* % | 100* % |  |
| Cc1nn(C)c(Nc2ccc(F)cc2)c1C1CCOCC1 [Compound 57] | 44* % | 0* % | 89* % | 0* % |  |
| Cc1nn(C)c(Nc2ccc(F)cc2F)c1C1=CCOCC1 [Compound 58] | 25* % | 0* % | 0* % | 0* % |  |
| Cc1nn(C)c(Nc2ccc(F)cc2F)c1C1CCOCC1 [Compound 59] | 92* % | 41* % | 98* % | 24* % |  |
| Cc1nn(C)c(Nc2ccc(F)cc2Cl)c1C1=CCC(C)(C)CC1 [Compound 60] | 16* % | 19* % | 0* % | 0* % |  |
| Cc1nn(C)c(Nc2ccc(F)cc2Cl)c1C1CCC(C)CC1 (centres unmarked) [Compound 61] | 53* % | 0* % | 97* % | 0* % |  |
| Cc1nn(C)c(Nc2ccc(F)cc2Cl)c1C1CCC(C)(C)CC1 [Compound 62] | 9* % | 68* % | 96* % | 0* % |  |
